Reference: BigSolDB 2.1

For `CC(C)(C)C(=O)C(Oc1ccc(Cl)cc1)n1ccnc1` (stereo not drawn), the solubility (mole fraction) (in acetone, 288.15 K) was 0.147, the solubility (mole fraction) (in acetone, 293.15 K) was 0.164 and the solubility (mole fraction) (in acetone, 298.15 K) was 0.185. It also gave a solubility (mole fraction) (in acetone, 303.15 K) of 0.207, a solubility (mole fraction) (in acetone, 308.15 K) of 0.235 and a solubility (mole fraction) (in acetone, 313.15 K) of 0.259. For the same compound, the solubility (mole fraction) (in acetone, 318.15 K) was 0.301, the solubility (mole fraction) (in acetonitrile, 288.15 K) was 0.0724 and the solubility (mole fraction) (in acetonitrile, 293.15 K) was 0.083. The solubility (mole fraction) (in acetonitrile, 298.15 K) was 0.103, the solubility (mole fraction) (in acetonitrile, 303.15 K) was 0.129 and the solubility (mole fraction) (in acetonitrile, 308.15 K) was 0.158. The solubility (mole fraction) (in acetonitrile, 313.15 K) was 0.19, the solubility (mole fraction) (in acetonitrile, 318.15 K) was 0.222 and the solubility (mole fraction) (in ethanol, 288.15 K) was 0.112. The solubility (mole fraction) (in ethanol, 293.15 K) was 0.132, the solubility (mole fraction) (in ethanol, 298.15 K) was 0.157 and the solubility (mole fraction) (in ethanol, 303.15 K) was 0.185. It also gave a solubility (mole fraction) (in ethanol, 308.15 K) of 0.211, a solubility (mole fraction) (in ethanol, 313.15 K) of 0.25 and a solubility (mole fraction) (in ethanol, 318.15 K) of 0.288. It also gave a solubility (mole fraction) (in ethyl acetate, 288.15 K) of 0.0909, a solubility (mole fraction) (in ethyl acetate, 293.15 K) of 0.105 and a solubility (mole fraction) (in ethyl acetate, 298.15 K) of 0.126. For the same compound, the solubility (mole fraction) (in ethyl acetate, 303.15 K) was 0.151, the solubility (mole fraction) (in ethyl acetate, 308.15 K) was 0.172 and the solubility (mole fraction) (in ethyl acetate, 313.15 K) was 0.202. For the same compound, the solubility (mole fraction) (in ethyl acetate, 318.15 K) was 0.239, the solubility (mole fraction) (in isobutanol, 288.15 K) was 0.098 and the solubility (mole fraction) (in isobutanol, 293.15 K) was 0.112. It also gave a solubility (mole fraction) (in isobutanol, 298.15 K) of 0.137, a solubility (mole fraction) (in isobutanol, 303.15 K) of 0.161 and a solubility (mole fraction) (in isobutanol, 308.15 K) of 0.192. The solubility (mole fraction) (in isobutanol, 313.15 K) was 0.22, the solubility (mole fraction) (in isobutanol, 318.15 K) was 0.26 and the solubility (mole fraction) (in methanol, 288.15 K) was 0.161. It also gave a solubility (mole fraction) (in methanol, 293.15 K) of 0.181, a solubility (mole fraction) (in methanol, 298.15 K) of 0.204 and a solubility (mole fraction) (in methanol, 303.15 K) of 0.226. For the same compound, the solubility (mole fraction) (in methanol, 308.15 K) was 0.255, the solubility (mole fraction) (in methanol, 313.15 K) was 0.28 and the solubility (mole fraction) (in methanol, 318.15 K) was 0.318. For the same compound, the solubility (mole fraction) (in methyl acetate, 288.15 K) was 0.0955, the solubility (mole fraction) (in methyl acetate, 293.15 K) was 0.109 and the solubility (mole fraction) (in methyl acetate, 298.15 K) was 0.129. It also gave a solubility (mole fraction) (in methyl acetate, 303.15 K) of 0.156, a solubility (mole fraction) (in methyl acetate, 308.15 K) of 0.179 and a solubility (mole fraction) (in methyl acetate, 313.15 K) of 0.214. The solubility (mole fraction) (in methyl acetate, 318.15 K) was 0.251, the solubility (mole fraction) (in n-butanol, 288.15 K) was 0.111 and the solubility (mole fraction) (in n-butanol, 293.15 K) was 0.131. For the same compound, the solubility (mole fraction) (in n-butanol, 298.15 K) was 0.152, the solubility (mole fraction) (in n-butanol, 303.15 K) was 0.181 and the solubility (mole fraction) (in n-butanol, 308.15 K) was 0.205. The solubility (mole fraction) (in n-butanol, 313.15 K) was 0.245, the solubility (mole fraction) (in n-butanol, 318.15 K) was 0.283 and the solubility (mole fraction) (in n-butyl acetate, 288.15 K) was 0.088. The solubility (mole fraction) (in n-butyl acetate, 293.15 K) was 0.0994, the solubility (mole fraction) (in n-butyl acetate, 298.15 K) was 0.115 and the solubility (mole fraction) (in n-butyl acetate, 303.15 K) was 0.142. It also gave a solubility (mole fraction) (in n-butyl acetate, 308.15 K) of 0.163, a solubility (mole fraction) (in n-butyl acetate, 313.15 K) of 0.192 and a solubility (mole fraction) (in n-butyl acetate, 318.15 K) of 0.227.
